Our source for the IC50 values is patent publication US11524944B2, “2-phenylpyrimidine-4-carboxamides as AHR inhibitors” (Bayer Aktiengesellschaft, priority 2017, dated 2022).

In the assay the target is T1, Mouse AhR (Mus musculus, UniProt P30561).
T1 sequence (P30561 1-848 P471L/N533S/M589L): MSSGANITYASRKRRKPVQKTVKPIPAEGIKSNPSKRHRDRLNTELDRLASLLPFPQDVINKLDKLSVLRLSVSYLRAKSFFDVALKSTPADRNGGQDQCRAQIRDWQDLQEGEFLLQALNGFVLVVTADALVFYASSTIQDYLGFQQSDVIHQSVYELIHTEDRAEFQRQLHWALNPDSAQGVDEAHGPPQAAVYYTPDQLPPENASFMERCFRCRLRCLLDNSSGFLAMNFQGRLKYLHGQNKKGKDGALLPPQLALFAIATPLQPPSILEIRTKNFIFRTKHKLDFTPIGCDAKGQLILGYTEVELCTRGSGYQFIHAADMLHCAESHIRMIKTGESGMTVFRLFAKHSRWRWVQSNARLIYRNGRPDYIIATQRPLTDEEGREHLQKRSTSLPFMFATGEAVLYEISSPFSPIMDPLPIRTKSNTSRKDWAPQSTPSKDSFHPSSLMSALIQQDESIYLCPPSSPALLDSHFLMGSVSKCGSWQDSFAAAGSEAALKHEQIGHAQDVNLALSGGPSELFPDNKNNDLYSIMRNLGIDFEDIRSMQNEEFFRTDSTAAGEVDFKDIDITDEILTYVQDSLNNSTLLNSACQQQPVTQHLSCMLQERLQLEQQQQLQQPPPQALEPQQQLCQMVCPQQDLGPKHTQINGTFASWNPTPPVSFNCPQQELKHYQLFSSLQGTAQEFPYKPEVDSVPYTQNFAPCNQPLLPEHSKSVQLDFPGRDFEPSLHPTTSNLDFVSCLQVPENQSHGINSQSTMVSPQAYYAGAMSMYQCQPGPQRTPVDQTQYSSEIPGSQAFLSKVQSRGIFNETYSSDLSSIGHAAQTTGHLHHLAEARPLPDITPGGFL
In words: Transactivation assay in mouse cell line (in vitro assay 2): antagonism. In kind it is cell-based. The conditions noted are these: Hepa 1c1c7 cells, AHR inducible firefly luciferase reporter (DRE), 200 μM kynurenic acid, 20 hours. Here is the method: Examples were tested in selected biological assays one or more times. When tested more than once, data are reported as either average values or as median values, wherein • the average value, also referred to as the arithmetic mean value, represents the sum of the values obtained divided by the number of times tested, and • the median value represents the middle number of the group of values when ranked in ascending or descending order. If the number of values in the data set is odd, the median is the middle value. If the number of values in the data set is even, the median is the arithmetic mean of the two middle values.
Transactivation Assay in Mouse Cell Line (In Vitro Assay 2)
Transactivation assay was carried out in Hepa 1c1c7 cells (ATCC #CRL-2026) endogenously expressing AHR. In addition the cells were stably transfected with an AHR inducible firefly luciferase reporter gene construct that carried AHR-binding sites (DRE) in its promoter. Kynurenic acid is an endogenous AHR activating ligand and was used to prestimulate test cells prior to testing the antagonistic properties of compounds.
In Vitro Assay 2: Antagonism in Mouse Cell Line
Firefly luciferase activity was determined by the SteadyGlo Luciferase Assay System (Promega, #E2550).
In general terms: A reporter such as luciferase makes a cellular process visible.
In general, IC50 refers to the midpoint of a concentration-inhibition curve. Lower therefore signals greater potency. `Cc1cccc(-c2nc(C(=O)NCC(C)(C)O)cc(-c3ccc(OC(F)(F)F)cc3)n2)c1` [Example 16, N-(2-hydroxy-2-methylpropyl)-2-(3-methylphenyl)-6-[4-(trifluoromethoxy)phenyl]pyrimidine-4-carboxamide] came in with an IC50 of 0.0129 µM. Consider `Cc1cc(-c2nc(C(=O)NCC(C)(C)O)cc(-c3ccc(OC(F)(F)F)cc3)n2)ccc1F` [Example 17, 2-(4-fluoro-3-methylphenyl)-N-(2-hydroxy-2-methylpropyl)-6-[4-(trifluoromethoxy)phenyl]pyrimidine-4-carboxamide], for which the midpoint of inhibition, the IC50, lay at 0.637 µM.

Consider `CC(C)(O)CNC(=O)c1cc(-c2ccc(OC(F)(F)F)cc2)nc(-c2ccc(Cl)c(Cl)c2)n1` [Example 22, 2-(3,4-dichlorophenyl)-N-(2-hydroxy-2-methylpropyl)-6-[4-(trifluoromethoxy)phenyl]pyrimidine-4-carboxamide], for which inhibition was half-maximal at 0.278 µM (IC50). With `CC(C)(O)CNC(=O)c1cc(-c2ccc(OC(F)(F)F)cc2)nc(-c2cc(F)cc(F)c2)n1` [Example 24, 2-(3,5-difluorophenyl)-N-(2-hydroxy-2-methylpropyl)-6-[4-(trifluoromethoxy)phenyl]pyrimidine-4-carboxamide] the figure was 0.0283 µM; with `C[C@@H](CO)NC(=O)c1cc(-c2ccc(OC(F)(F)F)cc2)nc(-c2cccc(Cl)c2)n1` [Example 37, 2-(3-chlorophenyl)-N-[(2S)-1-hydroxypropan-2-yl]-6-[4-(trifluoromethoxy)phenyl]pyrimidine-4-carboxamide], 0.00849 µM; with `C[C@@H](CO)NC(=O)c1cc(-c2ccc(OC(F)(F)F)cc2)nc(-c2cc(F)cc(F)c2)n1` [Example 39, 2-(3,5-difluorophenyl)-N-[(2S)-1-hydroxypropan-2-yl]-6-[4-(trifluoromethoxy)phenyl]pyrimidine-4-carboxamide], 0.0123 µM. With `Cc1cccc(-c2nc(C(=O)NCC(C)(C)O)cc(-c3ccc(Cl)cc3)n2)c1` [Example 48, 6-(4-chlorophenyl)-N-(2-hydroxy-2-methylpropyl)-2-(3-methylphenyl)pyrimidine-4-carboxamide] the figure was 0.026 µM; with `Cc1cc(-c2nc(C(=O)NCC(C)(C)O)cc(-c3ccc(Cl)cc3)n2)ccc1F` [Example 49, 6-(4-chlorophenyl)-2-(4-fluoro-3-methylphenyl)-N-(2-hydroxy-2-methylpropyl)pyrimidine-4-carboxamide], 0.406 µM. In turn, `CC(C)(O)CNC(=O)c1cc(-c2ccc(Cl)cc2)nc(-c2ccc(F)c(Cl)c2)n1` [Example 50, 2-(3-chloro-4-fluorophenyl)-6-(4-chlorophenyl)-N-(2-hydroxy-2-methylpropyl)pyrimidine-4-carboxamide] yielded an IC50 of 0.0538 µM. This IC50 lies about 7.5-fold lower than the previous one. With `Cc1cc(F)cc(-c2nc(C(=O)NCC(C)(C)O)cc(-c3ccc(Cl)cc3)n2)c1` [Example 60, 6-(4-chlorophenyl)-2-(3-fluoro-5-methylphenyl)-N-(2-hydroxy-2-methylpropyl)pyrimidine-4-carboxamide] the figure was 0.908 µM; with `C[C@@H](CO)NC(=O)c1cc(-c2ccc(Cl)cc2)nc(-c2cccc(Cl)c2)n1` [Example 71, 2-(3-chlorophenyl)-6-(4-chlorophenyl)-N-[(2S)-1-hydroxypropan-2-yl]pyrimidine-4-carboxamide], 0.0136 µM. With `C[C@@H](CO)NC(=O)c1cc(-c2ccc(Cl)cc2)nc(-c2cc(F)cc(F)c2)n1` [Example 74, 6-(4-chlorophenyl)-2-(3,5-difluorophenyl)-N-[(2S)-1-hydroxypropan-2-yl]pyrimidine-4-carboxamide] the figure was 0.017 µM. For `O=C(NC(CO)C1CCC1)c1cc(-c2ccc(OC(F)(F)F)cc2)nc(-c2cccc(F)c2)n1` (stereo not shown) [Example 85, N-(1-cyclobutyl-2-hydroxyethyl)-2-(3-fluorophenyl)-6-[4-(trifluoromethoxy)phenyl]pyrimidine-4-carboxamide], 0.0128 µM corresponded to half-maximal inhibition (IC50).
